In PubChem BioAssay AID1963865 (Molecular Pharmacology Branch, DTP, NCI, 2024):

Tested on: KRAS PDC multicell spheroid viability
Assay: Anticancer human tumor 825966-067-R-J1-PDC patient-derived colon carcinoma cell line growth inhibition [KRAS2]
Settings: for IC50: curve of first compound; for viability, T/C: stronger effect = lower value
Summary of the method: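 KRAS-mutant tumor cells were grown as spheroids with HUVEC endothelial cells and human MSCs as stroma. Targeted agents were tested alone and with KRAS pathway inhibitors. Doses started at or near clinical Cmax, or 10 microM, descending half-log.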

[1] = second compound 0.1 µM, first compound 0.0316 µM
[2] = second compound 0.1 µM, first compound 0.1 µM
[3] = second compound 0.1 µM, first compound 0.316 µM
[4] = second compound 0.1 µM, first compound 1 µM
[5] = second compound 0.1 µM, first compound 3.16 µM
[6] = second compound 0.1 µM, first compound 10 µM
[7] = second compound 0.316 µM, first compound 0.0316 µM
[8] = second compound 0.316 µM, first compound 0.1 µM
[9] = second compound 0.316 µM, first compound 0.316 µM
[10] = second compound 0.316 µM, first compound 1 µM
[11] = second compound 0.316 µM, first compound 3.16 µM
[12] = second compound 0.316 µM, first compound 10 µM
[13] = second compound 1 µM, first compound 0.0316 µM
[14] = second compound 1 µM, first compound 0.1 µM
[15] = second compound 1 µM, first compound 0.316 µM
[16] = second compound 1 µM, first compound 1 µM
[17] = second compound 1 µM, first compound 3.16 µM
[18] = second compound 1 µM, first compound 10 µM
[19] = second compound 3.16 µM, first compound 0.0316 µM
[20] = second compound 3.16 µM, first compound 0.1 µM
[21] = second compound 3.16 µM, first compound 0.316 µM
[22] = second compound 3.16 µM, first compound 1 µM
[23] = second compound 3.16 µM, first compound 3.16 µM
[24] = second compound 3.16 µM, first compound 10 µM
[25] = second compound 10 µM, first compound 0.0316 µM
[26] = second compound 10 µM, first compound 0.1 µM
[27] = second compound 10 µM, first compound 0.316 µM
[28] = second compound 10 µM, first compound 1 µM
[29] = second compound 10 µM, first compound 3.16 µM
[30] = second compound 10 µM, first compound 10 µM
[31] = second compound 0.1 µM, first compound 0.01 µM
[32] = second compound 0.316 µM, first compound 0.01 µM
[33] = second compound 1 µM, first compound 0.01 µM
[34] = second compound 3.16 µM, first compound 0.01 µM
[35] = second compound 10 µM, first compound 0.01 µM
[36] = second compound 0.1 µM, first compound 0.00316 µM
[37] = second compound 0.316 µM, first compound 0.00316 µM
[38] = second compound 1 µM, first compound 0.00316 µM
[39] = second compound 3.16 µM, first compound 0.00316 µM
[40] = second compound 10 µM, first compound 0.00316 µM
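Further: spheroids exposed to compounds for 7 days.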
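Wherever viability, T/C is given: 100% = DMSO vehicle control viability.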

SMILES | IC50 (second compound 0.1 µM) [nM] | IC50 (second compound 0.316 µM) [nM] | IC50 (second compound 1 µM) [nM] | IC50 (second compound 3.16 µM) [nM] | IC50 (second compound 10 µM) [nM] | viability, T/C [1] [%] | viability, T/C [2] [%] | viability, T/C [3] [%] | viability, T/C [4] [%] | viability, T/C [7] [%] | viability, T/C [8] [%] | viability, T/C [9] [%] | viability, T/C [10] [%] | viability, T/C [13] [%] | viability, T/C [14] [%] | viability, T/C [15] [%] | viability, T/C [19] [%] | viability, T/C [20] [%] | viability, T/C [25] [%] | viability, T/C [26] [%] | also measured
CC(C)NCC(C(=O)N1CCN(c2ncnc3c2C(C)CC3O)CC1)c1ccc(Cl)cc1 (stereo not given) + CC1OCC2(CCN(c3cnc(Sc4ccnc(N)c4Cl)c(N)n3)CC2)C1N | 4490 | 4130 | 2550 | 1420 | 35.8 | 73.2 | 97.8 | 129 | 87.9 | 86.3 | 121 | 145 | 122 | 92.9 | 102 | 133 | 102 | 107 | 53.1 | 29.5 | viability, T/C [5]: 67.5%; viability, T/C [6]: 11.6%; viability, T/C [11]: 60.6%; viability, T/C [12]: 14.5%; viability, T/C [16]: 112%; viability, T/C [17]: 36.2%; viability, T/C [18]: 12.1%; viability, T/C [21]: 137%; viability, T/C [22]: 67.7%; viability, T/C [23]: 13.4%; viability, T/C [24]: 5.28%; viability, T/C [27]: 21.9%; viability, T/C [28]: 6.39%; viability, T/C [29]: 4.52%; viability, T/C [30]: 4.31%
CC1(C)CCC(CN2CCN(c3ccc(C(=O)NS(=O)(=O)c4ccc(NCC5CCOCC5)c([N+](=O)[O-])c4)c(Oc4cnc5[nH]ccc5c4)c3)CC2)=C(c2ccc(Cl)cc2)C1 + CC1OCC2(CCN(c3cnc(Sc4ccnc(N)c4Cl)c(N)n3)CC2)C1N | 2220 | 2230 | 2140 | 2360 | 1970 | 103 | 88.4 | 116 | 114 | 102 | 104 | 119 | 96.9 | 99 | 110 | 119 | 122 | 126 | 69 | 78.2 | viability, T/C [5]: 25.6%; viability, T/C [6]: 11.1%; viability, T/C [11]: 29.6%; viability, T/C [12]: 3.21%; viability, T/C [16]: 110%; viability, T/C [17]: 19.3%; viability, T/C [18]: 4.73%; viability, T/C [21]: 111%; viability, T/C [22]: 119%; viability, T/C [23]: 26.6%; viability, T/C [24]: 4.06%; viability, T/C [27]: 131%; viability, T/C [28]: 141%; viability, T/C [29]: 11.5%; viability, T/C [30]: 2%
CC1COCCN1c1cc(-c2ccnn2C)c2ccnc(-c3ccn[nH]3)c2n1 (stereo not given) + CC1OCC2(CCN(c3cnc(Sc4ccnc(N)c4Cl)c(N)n3)CC2)C1N | 2860 | > 3160 | 3160 | 79.3 | 17.2 | 120 | 78.5 | 75.3 | 60 | 139 | 57.9 | 66.4 | 60.2 | 135 | 57.4 | 55.8 | 118 | 32.4 | 29.6 | 12.9 | viability, T/C [31]: 135%; viability, T/C [5]: 46.6%; viability, T/C [32]: 125%; viability, T/C [11]: 59%; viability, T/C [33]: 128%; viability, T/C [16]: 51.3%; viability, T/C [17]: 48.5%; viability, T/C [34]: 134%; viability, T/C [21]: 29%; viability, T/C [22]: 32.9%; viability, T/C [23]: 36.3%; viability, T/C [35]: 68.1%; viability, T/C [27]: 11.3%; viability, T/C [28]: 12.6%; viability, T/C [29]: 18.3%
CCN1CCN(Cc2ccc(Nc3ncc(F)c(-c4cc(F)c5nc(C)n(C(C)C)c5c4)n3)nc2)CC1 + CC1OCC2(CCN(c3cnc(Sc4ccnc(N)c4Cl)c(N)n3)CC2)C1N | > 1000 | > 1000 | > 1000 | 842 | 64.9 | 102 | 129 | 143 | 124 | 96.7 | 139 | 135 | 74.4 | 112 | 130 | 164 | 98.1 | 117 | 72.4 | 36 | viability, T/C [36]: 121%; viability, T/C [31]: 110%; viability, T/C [37]: 105%; viability, T/C [32]: 115%; viability, T/C [38]: 105%; viability, T/C [33]: 113%; viability, T/C [16]: 87.3%; viability, T/C [39]: 95.2%; viability, T/C [34]: 96.7%; viability, T/C [21]: 150%; viability, T/C [22]: 39.2%; viability, T/C [40]: 72%; viability, T/C [35]: 84.8%; viability, T/C [27]: 18.4%; viability, T/C [28]: 10.7%
CCNC(=O)CC1N=C(c2ccc(Cl)cc2)c2cc(OC)ccc2-n2c(C)nnc21 (stereo not given) + CC1OCC2(CCN(c3cnc(Sc4ccnc(N)c4Cl)c(N)n3)CC2)C1N | > 10000 | > 10000 | > 10000 | > 10000 | > 10000 | 104 | 107 | 122 | 82.7 | 101 | 123 | 119 | 90.3 | 97.5 | 139 | 138 | 97.6 | 118 | 85.2 | 91.5 | viability, T/C [5]: 89.9%; viability, T/C [6]: 84.9%; viability, T/C [11]: 91.2%; viability, T/C [12]: 80.1%; viability, T/C [16]: 108%; viability, T/C [17]: 107%; viability, T/C [18]: 89.6%; viability, T/C [21]: 137%; viability, T/C [22]: 103%; viability, T/C [23]: 84.2%; viability, T/C [24]: 71.3%; viability, T/C [27]: 93.5%; viability, T/C [28]: 87.6%; viability, T/C [29]: 67.6%; viability, T/C [30]: 71.8%
Cn1ncnc1[C@H]1c2n[nH]c(=O)c3cc(F)cc(c23)N[C@@H]1c1ccc(F)cc1 + CC1OCC2(CCN(c3cnc(Sc4ccnc(N)c4Cl)c(N)n3)CC2)C1N | > 100 | > 100 | > 100 | > 100 | < 0.316 | 74.8 | 64.7 |  |  | 89.6 | 69.7 |  |  | 78.5 | 79.6 |  | 87.1 | 85 | 37.2 | 18.1 | viability, T/C (second compound 0.1 µM, first compound 0.000316 µM): 109%; viability, T/C (second compound 0.1 µM, first compound 0.001 µM): 82%; viability, T/C [36]: 85.6%; viability, T/C [31]: 71.5%; viability, T/C (second compound 0.316 µM, first compound 0.000316 µM): 110%; viability, T/C (second compound 0.316 µM, first compound 0.001 µM): 99.8%; viability, T/C [37]: 103%; viability, T/C [32]: 106%; viability, T/C (second compound 1 µM, first compound 0.000316 µM): 87%; viability, T/C (second compound 1 µM, first compound 0.001 µM): 109%; viability, T/C [38]: 80%; viability, T/C [33]: 104%; viability, T/C (second compound 3.16 µM, first compound 0.000316 µM): 93.3%; viability, T/C (second compound 3.16 µM, first compound 0.001 µM): 80.7%; viability, T/C [39]: 86.8%; viability, T/C [34]: 80%; viability, T/C (second compound 10 µM, first compound 0.000316 µM): 55.1%; viability, T/C (second compound 10 µM, first compound 0.001 µM): 18.3%; viability, T/C [40]: 31.5%; viability, T/C [35]: 43.9%
